From patent US10653779B2, “Formulations with reduced oxidation” (Genentech, Inc., priority 2013, dated 2020)

Experiments:
[1] = Photosensitivity screening: H2O2 formation by antioxidant candidates upon light exposure (Amplex Ultra Red Assay); format: physicochemical
Method: As a screening tool, antioxidant candidates were exposed to light for four hours at 250 W/m^2 and the resulting H2O2 formation was quantified by the Amplexassay. Specifically, antioxidants were prepared to 1 mM in 20 mM histidine acetate buffer at pH 5.5. The 1 mM antioxidant solutions were aliquoted into glass vials (2 mL/glass vial) and exposed to four hours of light at 250 W/m^2 in an Atlas SunTest CPS+ Xenon Test Instrument (Chicago, Ill.). Total UV dose was 90 watt-hours/square meter and total visible dose was 0.22 million lux hours over the 4-hour period. Control vials were wrapped in aluminum foil and treated similarly. The amount of hydrogen peroxide generated after exposure to light was measured using the Amplex® Ultra Red Assay (Invitrogen, Carlsbad, Calif.) following the manufacturer's recommended procedure. On addition of horseradish peroxidase (HRP), the dye reacted 1:1 stoichiometrically with H2O2, resulting in the production of fluorescent oxidation product resorufin. In this study, fluorescence readings were obtained using a Spectra Max M2 Micro-plate Reader (Molecular Devices, Sunnyvale, Calif.) with excitation and emission set at 560 nm and 590 nm, respectively. Final H2O2 concentrations were determined using a standard curve ranging from 0 μm to 20 μm. […]

[2] = Cyclic voltammetry (CV) screening of oxidation potentials; format: physicochemical; conditions: glassy carbon working electrode, 0.2 M lithium perchlorate
Method: The oxidation/reduction characteristics of the compounds were investigated. Several compounds, including L-Trp and derivatives, were evaluated for the protection of Trp oxidation in proteins using cyclic voltammetry (CV) and rank ordered based on their oxidation potentials (Table 2). Specifically, the candidate antioxidants were dissolved in deionized water and then added to a 0.2 M lithium perchlorate electrolyte solution. […] Solutions were scanned from −0.10 V to +1.50 V at a scan rate of either 100 or 500 mV/sec. The analytical cell was purged for four minutes with nitrogen before scanning of each antioxidant solution. The input was a linear scan of the potential of a working electrode, and the output was measurement of the resulting current. […] Redox reactions were characterized by sharp increases or decreases in current (peaks). The potential at which an oxidation reaction occurred was referred to as the anodic peak potential (or oxidation potential), and the potential at which a reduction occurred was referred to as is the cathodic peak (or reduction) potential.

mAb1 [3] = assay: mAb1 light stress, eight hours, with L-Trp and L-Met; Fab/Fc oxidation by papain digest RP-HPLC; format: physicochemical, human; conditions: 5 mg/mL mAb1, 8 h light at 250 W/m^2, L-Trp at 1 mM
Method: L-tryptophan (L-Trp), an antioxidant used in protein formulations, has been recently shown to be photosensitive (Igarashi et al., Anal Sci 23(8):943-8 (2007)) and to have the ability to produce H2O2 upon light exposure. […] Control vials were wrapped in aluminum foil and treated similarly. After light exposure, solutions were prepared for analysis by reverse-phase HPLC. […] Following incubation, 900 μL of the solution was combined with 100 μL of 1 M dithiothreitol (DTT) and incubated for another thirty minutes at 37° C. Samples were then run on an Agilent, Inc. 1100/1200 HPLC system (Santa Clara, Calif.) equipped with UV detection at 280 nm in conjunction with a Varian, Inc. Pursuit 3 μm, 2 mm ID×250 mm diphenyl column (Palo Alto, Calif.). Mobile Phase A was 0.1% TFA in water. Mobile Phase B was 0.1% TFA in acetonitrile. The mobile phase gradient increased linearly from 34% B at 0 minutes to 43% B at 50.0 minutes, then to 95% B at 50.1 minutes. The gradient remained at 95% B until 60.1 minutes, and then decreased linearly from 95% B to 34% B between 60.1 and 60.2 minutes. The gradient remained at 34% B until the end of the cycle at 80.2 minutes. The column temperature was 65° C., total flow rate was 0.2 mL/min, and injection volume of each sample was 6 μL. Chromatograms were then integrated for quantification of oxidation.

[4] = H2O2 generation by free L-Trp upon light exposure for 3 hours (Amplex assay); format: physicochemical
Method: It was previously reported that L-Trp produced H2O2 via superoxide ion and in a sub-stoichiometric fashion while antibodies under similar conditions were producing catalytic amounts (Wentworth et al., Science 293(5536):1806-11 (2001); McCormick et al., Journal of the American Chemical Society 100:312-313 (1978)). To test the susceptibility of free L-Trp under pharmaceutically relevant conditions, such as under both ICH and ambient light conditions, formulations comprising 0.32 mM to 7.5 mM of L-Trp were exposed for 3 hours at 250 W/m^2 UV light and about 150 k lux visible light. Samples were taken and analyzed immediately via the Amplex assay to detect the amount of H2O2 generated under these conditions. […] When L-Trp was incubated with a combination of 50 mM NaN3 and 150 U superoxide dismutase (SOD) or SOD alone, significant amounts of H2O2 were still detected in the samples not containing NaN3.

mAb1 [5] = assay: Ambient light exposure of 50 mg/mL mAb1 formulations containing L-Trp (Amplex assay, RP-HPLC); format: physicochemical, human
From the text: While confirming the photosensitivity of free L-Trp under ICH light conditions, the effect of ambient light that was typically seen in laboratories was studied. Measurements using a DLM1 digital light meter in various labs indicated an average of 300 lux on a lab benchtop (with white fluorescent lighting), an average of 3000 lux in a laminar flow hood (with white fluorescent lighting) and about 10000 lux for a windowsill exposed to southeast sunlight. […] Peroxide production increased with both luminosity (300, 3000, and 10000 lux) and time (1, 3, and 7 days). […] These levels of light exposure and time were determined to be pharmaceutically relevant for drug substance handling under ambient light and temperature before fill/finish operations and potentially while inspecting drug product vials.

mAb1 [6] = assay: mAb1 light stress study, 16 hours; Fab/Fc oxidation by RP-HPLC; format: physicochemical, human; conditions: 16 hours of light at 250 W/m^2
Method: The fragments were reduced with DTT, and then separated and identified via Liquid Chromatography-Mass Spectrometry (LC-MS). […] Comparison of area integrated under the oxidized and native peaks was used to quantify HC Fab and Fc oxidation. […] By using the papain digest RP-HPLC method in the present study it was possible to investigate Trp residue oxidation by quantifying HC Fab oxidation, and Met residue oxidation by quantifying HC Fc oxidation.
Antioxidants were added at 1 mM. Glass vials containing these formulations were exposed to 250 W/m^2 light in an Atlas SunTest CPS+ Xenon Test Instrument (Chicago, Ill.). Control vials were wrapped in aluminum foil and treated similarly. After light exposure, solutions were prepared for analysis by reverse-phase HPLC as described above.

For `N[C@@H](Cc1c[nH]c2ccccc12)C(=O)O` [L-Trp, L-Tryptophan], the “(H2O2 produced by Compound)/(H2O2 produced by L-Trp)” value ([1]; 1 mM in 20 mM histidine acetate pH 5.5, four hours of light at 250 W/m^2) was 1, the “H2O2 production upon light exposure compared to L-Trp (in words)” value ([1]; 1 mM, 20 mM L-His-acetate pH 5.5, 4 h light, 0.22 million lux hours) was “produced more H2O2” and the “Oxidation Potential (anodic peak)” value [2] was 0.938 V vs Ag/AgCl. For the same molecule, the “Fc oxidation of mAb1” value (mAb1 [3]) was “over 20%”, the “Fab oxidation of mAb1” value (mAb1 [3]; label mAb1 = No Excipient) was roughly 9% and the “H2O2 generated by free L-Trp upon light exposure” value ([4]; 0.32 mM to 7.5 mM L-Trp, 3 hours at 250 W/m^2 UV light and about 150 k lux visible light) was “large quantity of H2O2”. For the same molecule, the “H2O2 generation by L-Trp in the presence of sodium azide” value ([4]; 50 mM sodium azide, 3 hours light) was “reduced greatly”, the “Heavy chain Fab oxidation (W53) with increased luminosity (in words)” value (mAb1 [5]; 50 mg/mL mAb1 with 3.2 mM L-Trp, 10 days ambient light) was “increased heavy chain Fab oxidation” and the “% Fc oxidation in mAb1” value (mAb1 [5]; 50 mg/mL mAb1 with 3.2 mM L-Trp, ambient light 300 lux) was 5%. The “% Fc oxidation in mAb1” value (mAb1 [5]; 50 mg/mL mAb1 with 3.2 mM L-Trp, ambient light 10000 lux) was 40%, the “Hydrogen peroxide produced under ambient light” value (mAb1 [5]; L-Trp in formulation buffers containing 50 mg/mL mAb1, 300, 3000, 10000 lux, 1, 3, 7 days) was “in the micromolar range” and the “Fc oxidation relative to the control level” value (mAb1 [6]; 1 mM L-Trp) was 7 times. For the same molecule, the “Fab oxidation increase over the control level (mAb1 Ref Mat)” value (mAb1 [6]; excipient 1 mM, label mAb1 = No Excipient) was “over 11 fold”.
